Earlier results on 3 compounds are cited in patent publication US10357461B2, “Physically dispersed, molecularly dissolved and/or chemically bound drug(s) in an empty, hard capsule shell composition” (priority 2005, dated 2019).

In brackets after ≈: the same amount, converted by molar mass.

The conditions of series [1]: people taking metformin.

In the case of `COc1cc2c(c(OC)c1OC)-c1ccc(OC)c(=O)cc1[C@@H](NC(C)=O)CC2` [Colchicine], the solubility in water (water) was 7000 µg/mL (≈ 17.5 mM). With `C[C@]12CCC(=O)C=C1[C@@H]1C[C@@H]1[C@H]1[C@@H]3[C@@H]4C[C@@H]4[C@@]4(CCC(=O)O4)[C@@]3(C)CC[C@@H]12` [Drospirenone], the water solubility (water at 25° C.) was 1.8 µg/mL (≈ 0.00491 mM). In the case of `CN(C)C(=N)N=C(N)N` [metformin], in series [1], the “people taking the drug who face vitamin B12 deficiency” value was approximately 30%.
